Reference: publication PMC3523387 (Planta medica, 2012)

Target: T1, protein tyrosine phosphatase 1B (PTP1B) (Homo sapiens, UniProt P18031)
T1 sequence (P18031 1-435): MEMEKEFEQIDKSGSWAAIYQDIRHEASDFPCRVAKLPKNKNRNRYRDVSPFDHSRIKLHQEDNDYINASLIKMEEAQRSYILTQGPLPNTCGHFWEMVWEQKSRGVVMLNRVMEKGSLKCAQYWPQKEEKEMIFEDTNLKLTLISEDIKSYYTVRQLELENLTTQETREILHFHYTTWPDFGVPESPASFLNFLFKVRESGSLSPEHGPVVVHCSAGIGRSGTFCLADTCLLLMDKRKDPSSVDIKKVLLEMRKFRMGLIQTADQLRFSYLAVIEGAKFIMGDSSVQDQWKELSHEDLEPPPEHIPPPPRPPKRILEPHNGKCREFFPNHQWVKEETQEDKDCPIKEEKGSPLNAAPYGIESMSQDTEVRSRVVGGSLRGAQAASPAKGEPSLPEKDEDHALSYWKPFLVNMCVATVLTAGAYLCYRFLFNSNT
Experiment: colorimetric pNPP hydrolysis assay with human recombinant PTP1B, dose-response
Type: biochemical

ratanhiaphenol III [compound 9]
IC50: 20.2 µM
